These results are taken from patent publication US20020082419A1, “2,4-pentadienoic acid derivatives having retinoid-like biological activity” (Allergan Sales, Inc., priority 1995, published 2002).

pEC50: −log10 of the molar value.

Common to all, as to format: cell-based
For one assay, the target named is T1, RARβ (Homo sapiens, UniProt P10826).
T1 construct: expressed in transfected cells; host or cells: CV1 cells
T1 sequence (P10826 1-455): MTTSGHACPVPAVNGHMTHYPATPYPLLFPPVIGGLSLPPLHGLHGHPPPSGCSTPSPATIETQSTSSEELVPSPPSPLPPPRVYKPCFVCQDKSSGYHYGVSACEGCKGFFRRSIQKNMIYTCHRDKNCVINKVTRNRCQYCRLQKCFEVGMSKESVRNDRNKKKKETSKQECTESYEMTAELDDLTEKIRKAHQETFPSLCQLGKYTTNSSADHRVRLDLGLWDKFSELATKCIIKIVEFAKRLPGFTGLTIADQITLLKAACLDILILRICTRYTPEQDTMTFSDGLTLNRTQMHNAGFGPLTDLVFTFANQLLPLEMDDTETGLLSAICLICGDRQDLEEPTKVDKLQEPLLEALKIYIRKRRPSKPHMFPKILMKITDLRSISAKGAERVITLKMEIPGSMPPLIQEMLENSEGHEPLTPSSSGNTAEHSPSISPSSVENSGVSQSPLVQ
As to the kind of experiment: Holoreceptor transactivation assay, RARβ. The conditions noted are these: for pEC50: CV1 cells, luciferase reporter, 36 hours incubation; for Transactivation Assay Afficacy (% of RA activity) RARβ: relative to all trans retinoic acid. As to the method: (§1) A description of the holoreceptor transactivation assay is also provided below.
(§2) (8). […] (8, 9). […] A β-galactosidase (50 ng) expression vector was used as an internal control in the transfections to normalize for variations in transfection efficiency. The cells were transfected in triplicate for 6 hours, followed by incubation with retinoids for 36 hours, and the extracts were assayed for luciferase and β-galactosidase activities. The detailed experimental procedure for holoreceptor transactivations has been described in Heyman et al. above, and Allegretto et al. cited above. […] The results of ligand binding assay are expressed in KD50 numbers.

A further assay deals with T2, RXRβ (Mus musculus, UniProt P28704).
T2 sequence (P28704 1-520): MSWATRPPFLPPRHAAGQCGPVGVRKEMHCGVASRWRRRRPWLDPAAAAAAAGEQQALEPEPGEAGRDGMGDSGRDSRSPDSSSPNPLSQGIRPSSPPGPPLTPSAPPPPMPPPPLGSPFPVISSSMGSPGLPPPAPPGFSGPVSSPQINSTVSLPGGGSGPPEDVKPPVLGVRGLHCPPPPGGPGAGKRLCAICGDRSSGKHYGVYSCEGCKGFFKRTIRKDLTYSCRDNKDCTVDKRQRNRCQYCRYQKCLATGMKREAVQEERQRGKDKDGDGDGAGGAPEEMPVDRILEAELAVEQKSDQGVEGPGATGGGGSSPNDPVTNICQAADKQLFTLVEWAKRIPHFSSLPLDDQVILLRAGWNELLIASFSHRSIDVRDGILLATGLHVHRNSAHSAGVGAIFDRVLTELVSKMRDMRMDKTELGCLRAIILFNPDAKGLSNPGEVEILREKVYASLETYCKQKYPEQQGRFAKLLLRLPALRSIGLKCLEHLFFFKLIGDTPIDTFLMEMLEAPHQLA
As to the kind of experiment: Holoreceptor transactivation assay, RXRβ. Particulars: relative to all trans retinoic acid; read-out: Transactivation Assay Afficacy (% of RA activity) RXRβ. The procedure:
as §1, §2

The target in another assay is T3, RXRΓ (Mus musculus, UniProt P28705).
T3 construct: expressed in transfected cells; host or cells: CV1 cells
T3 sequence (P28705 1-463): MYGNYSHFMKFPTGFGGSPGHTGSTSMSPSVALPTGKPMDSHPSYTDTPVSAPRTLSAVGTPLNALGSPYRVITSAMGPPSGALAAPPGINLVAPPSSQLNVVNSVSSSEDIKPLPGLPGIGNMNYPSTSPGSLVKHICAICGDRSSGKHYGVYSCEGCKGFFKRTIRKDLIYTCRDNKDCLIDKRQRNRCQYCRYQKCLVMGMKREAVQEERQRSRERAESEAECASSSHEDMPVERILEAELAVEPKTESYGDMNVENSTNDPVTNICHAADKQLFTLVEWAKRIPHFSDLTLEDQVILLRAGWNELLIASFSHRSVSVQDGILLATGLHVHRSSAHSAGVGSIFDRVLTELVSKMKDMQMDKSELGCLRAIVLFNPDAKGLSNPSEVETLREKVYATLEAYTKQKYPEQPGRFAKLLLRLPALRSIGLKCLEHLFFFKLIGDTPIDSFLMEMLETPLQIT
As to the kind of experiment: Holoreceptor transactivation assay, RXRΓ. Particulars: for pEC50: CV1 cells, luciferase reporter, 36 hours incubation; for Transactivation Assay Afficacy (% of RA activity) RXRΓ: relative to all trans retinoic acid. As to the method: as §1, §2

As usually defined, the pEC50 is the negative decadic logarithm of the EC50, by convention in mol/L. For the compound `CC(C=CC1CC1(C)c1ccc2c(c1)C(C)(C)CCO2)=CC(=O)O` (stereo not drawn) [Compound 21, 3,7-Dimethyl,6(RS),7(SR) methano-7-(4,4-dimethyl-chroman-6-yl),2(E),4(E)-heptadienoic Acid], on RARβ, the pEC50 was 5.74 and the “Transactivation Assay Afficacy (% of RA activity) RARβ” value is 26.0 % of RA activity. Besides, on RXRβ, the Emax is 93%. On RXRΓ, the pEC50 was 7.54 and the “Transactivation Assay Afficacy (% of RA activity) RXRΓ” value is reported as 85.0 % of RA activity.
With `CC(C=CC1CC1(C)c1cc2c(cc1C)C(C)(C)CCC2(C)C)=CC(=O)O` (stereo not drawn) [Compound 13, 3,7-Dimethyl,6(RS),7(SR) methano-7-(3,5,5,8,8-pentamethyl-5,6,7,8-tetrahydronaphth-2-yl),2(E),4(E)-heptadienoic Acid], at RARβ, the negative-log EC50 (pEC50) is below 6.00 and the “Transactivation Assay Afficacy (% of RA activity) RARβ” value is 3.0 % of RA activity. In addition, on RXRβ, the Emax was 72%. Further, on RXRΓ, the pEC50 was 7.15 and the “Transactivation Assay Afficacy (% of RA activity) RXRΓ” value is listed as 40.0 % of RA activity.
With `CC(/C=C/c1ccccc1-c1ccc2c(c1)C(C)(C)CCC2(C)C)=C\C(=O)O` [Compound 9, 3-Methyl-5-[2-(5,5,8,8,-tetramethyl-5,6,7,8-tetrahydronaphth-2-yl)phenyl]pent-2(E),4(E)-dienoic Acid], at RARβ, the negative logarithm of the EC50 (pEC50) was below 6.00 and the “Transactivation Assay Afficacy (% of RA activity) RARβ” value is recorded as 8.0 % of RA activity. In addition, the Emax on RXRβ is 94%. On RXRΓ, the pEC50 is 6.62 and the “Transactivation Assay Afficacy (% of RA activity) RXRΓ” value is recorded as 50.0 % of RA activity.
As for `CC(C=CC1CC1(C)c1ccc2c(c1)C(C)(C)CCS2)=CC(=O)O` (stereo not drawn) [Compound 17, 3,7-Dimethyl,6(RS),7(SR) methano-7-(4,4-dimethylthiochroman-6-yl) 2(E),4(E)-heptadienoic Acid], at RARβ, the pEC50 is 7.32 and the “Transactivation Assay Afficacy (% of RA activity) RARβ” value is recorded as 29 % of RA activity. For the same compound, the Emax at RXRβ is 118%. Besides, on RXRΓ, the negative-log EC50 (pEC50) was 7.89 and the “Transactivation Assay Afficacy (% of RA activity) RXRΓ” value is on record as 73 % of RA activity.
